From PMC9820167, “Design and Synthesis of Conformationally Flexible Scaffold as Bitopic Ligands for Potent D3-Selective Antagonists” (International Journal of Molecular Sciences, 2022)
Where two headings read alike, the source gives them in different places.

Columns and labels:
human D3 receptors = human D3 receptors (Homo sapiens, UniProt P35462); experiment: Radioligand binding assay with [125I]IABN, D3 receptor; parameters: expressed in transfected cells; host or cells: HEK293; conditions: for Ki: D3 receptors expressed in HEK cells, mean ± SEM, three experiments, HCl salts; for D2/D3: selectivity ratio of Ki D2 / Ki D3 (fold)
Chain of human D3 receptors (P35462 whole entry): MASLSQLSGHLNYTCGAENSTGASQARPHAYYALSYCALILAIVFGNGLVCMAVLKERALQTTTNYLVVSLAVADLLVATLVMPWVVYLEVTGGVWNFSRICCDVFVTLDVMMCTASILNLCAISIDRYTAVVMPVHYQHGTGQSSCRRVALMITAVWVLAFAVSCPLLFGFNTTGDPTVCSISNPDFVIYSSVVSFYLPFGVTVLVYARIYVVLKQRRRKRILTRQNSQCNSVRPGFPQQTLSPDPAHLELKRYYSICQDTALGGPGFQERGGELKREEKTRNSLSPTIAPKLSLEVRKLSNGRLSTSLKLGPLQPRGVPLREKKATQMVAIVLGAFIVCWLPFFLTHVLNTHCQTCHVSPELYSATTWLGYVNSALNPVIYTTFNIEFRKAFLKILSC
Protocol: Two different assays were used to evaluate the properties of the analogs described above. The receptor binding affinity was measured by radioligand binding assays using [^125I]IABN with D2 or D3 receptors highly expressed HEK293 cells. The functional activity of the analogs was determined using a β-arrestin recruitment assay. The assay was initially conducted in agonist binding mode to confirm that they function as antagonists at the D3 receptor. Once this efficacy was confirmed, the assay was conducted in antagonist mode to determine the ability of the antagonist to compete with dopamine at the D3 receptor. The results of the antagonist mode assay are reported as IC50 values.
Ki values for D2 and D3 receptors were measured using [^125I]IABN in human D2 and D3 receptors expressed in HEK cells, respectively. A filtration binding assay was used to characterize membrane-associated receptor binding properties. The details for the procedures were described in the literature.

Serotonin 5-HT6 = Serotonin 5-HT6 (Homo sapiens, UniProt P50406); experiment: PDSP binding screen
Chain of Serotonin 5-HT6 (P50406 whole entry): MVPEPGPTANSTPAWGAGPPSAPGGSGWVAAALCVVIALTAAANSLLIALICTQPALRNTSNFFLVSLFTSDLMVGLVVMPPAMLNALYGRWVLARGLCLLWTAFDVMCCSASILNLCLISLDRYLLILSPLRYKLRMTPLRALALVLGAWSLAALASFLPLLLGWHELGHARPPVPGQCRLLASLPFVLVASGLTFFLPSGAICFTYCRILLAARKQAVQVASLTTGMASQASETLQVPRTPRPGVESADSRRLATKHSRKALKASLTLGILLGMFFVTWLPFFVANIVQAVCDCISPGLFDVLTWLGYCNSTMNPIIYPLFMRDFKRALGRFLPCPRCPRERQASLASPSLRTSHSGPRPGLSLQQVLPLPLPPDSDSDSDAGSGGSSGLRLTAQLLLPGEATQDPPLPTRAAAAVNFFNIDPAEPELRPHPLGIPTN

GABAA = experiment: PDSP binding screen; conditions: HCl salts
Dopamine D3 = Dopamine D3 (Homo sapiens, UniProt P35462); experiment: PDSP binding screen
Chain of Dopamine D3 (P35462 whole entry): as the sequence (P35462 whole entry) above

Muscarinic M2 = molecular target: T1, Muscarinic M2 (Homo sapiens, UniProt P08172); experiment: PDSP binding screen; conditions: for inhibition at 10 µM: read-out: Ki (nM) or % inhibition at 10 µM: M2
T1 sequence (P08172 1-466): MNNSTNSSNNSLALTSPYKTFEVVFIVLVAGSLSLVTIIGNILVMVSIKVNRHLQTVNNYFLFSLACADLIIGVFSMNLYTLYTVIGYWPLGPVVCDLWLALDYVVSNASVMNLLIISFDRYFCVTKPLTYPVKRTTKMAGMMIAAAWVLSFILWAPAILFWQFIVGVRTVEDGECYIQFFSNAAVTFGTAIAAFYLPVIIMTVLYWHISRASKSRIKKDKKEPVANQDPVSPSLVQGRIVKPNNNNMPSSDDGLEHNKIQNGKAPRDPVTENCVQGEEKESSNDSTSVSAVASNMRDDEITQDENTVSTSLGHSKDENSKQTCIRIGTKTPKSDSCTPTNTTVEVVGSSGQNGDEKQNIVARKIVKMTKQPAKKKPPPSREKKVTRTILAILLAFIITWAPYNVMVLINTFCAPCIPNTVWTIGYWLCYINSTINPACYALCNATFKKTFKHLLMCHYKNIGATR

Opioid MOR = Opioid MOR (Homo sapiens, UniProt P35372); experiment: PDSP binding screen; conditions: for inhibition at 10 µM: read-out: Ki (nM) or % inhibition at 10 µM: MOR
Chain of Opioid MOR (P35372 whole entry): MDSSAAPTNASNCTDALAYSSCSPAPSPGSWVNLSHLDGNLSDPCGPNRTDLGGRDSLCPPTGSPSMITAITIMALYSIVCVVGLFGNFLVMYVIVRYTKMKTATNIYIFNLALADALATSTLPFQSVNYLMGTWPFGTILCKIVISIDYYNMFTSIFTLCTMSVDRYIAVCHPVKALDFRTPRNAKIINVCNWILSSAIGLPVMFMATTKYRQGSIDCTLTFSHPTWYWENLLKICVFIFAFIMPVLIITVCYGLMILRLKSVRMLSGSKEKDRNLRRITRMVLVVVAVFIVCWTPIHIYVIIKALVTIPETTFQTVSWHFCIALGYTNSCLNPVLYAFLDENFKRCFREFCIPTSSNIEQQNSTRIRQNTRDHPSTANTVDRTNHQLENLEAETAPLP

Serotonin 5-HT2C = molecular target: T2, Serotonin 5-HT2C (Homo sapiens, UniProt P28335); experiment: PDSP binding screen
T2 sequence (P28335 33-458): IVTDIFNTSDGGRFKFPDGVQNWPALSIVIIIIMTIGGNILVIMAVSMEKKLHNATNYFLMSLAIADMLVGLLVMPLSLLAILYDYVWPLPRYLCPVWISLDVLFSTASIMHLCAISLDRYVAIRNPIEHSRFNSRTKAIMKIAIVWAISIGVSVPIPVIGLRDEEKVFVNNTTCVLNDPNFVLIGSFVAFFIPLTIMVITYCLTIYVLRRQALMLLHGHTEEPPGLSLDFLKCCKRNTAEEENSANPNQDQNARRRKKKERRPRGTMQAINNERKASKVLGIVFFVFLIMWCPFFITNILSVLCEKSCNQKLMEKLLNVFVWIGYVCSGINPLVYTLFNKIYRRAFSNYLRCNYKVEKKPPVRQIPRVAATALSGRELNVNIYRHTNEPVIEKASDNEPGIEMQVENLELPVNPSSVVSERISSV

BZP Rat Brain Site = experiment: PDSP binding screen; conditions: HCl salts
Serotonin 5-HT7A = Serotonin 5-HT7A (Homo sapiens, UniProt P34969); experiment: PDSP binding screen; conditions: read-out: Ki (nM) or % inhibition at 10 µM: 5-HT7A
Chain of Serotonin 5-HT7A (P34969 1-445 isoform P34969-2): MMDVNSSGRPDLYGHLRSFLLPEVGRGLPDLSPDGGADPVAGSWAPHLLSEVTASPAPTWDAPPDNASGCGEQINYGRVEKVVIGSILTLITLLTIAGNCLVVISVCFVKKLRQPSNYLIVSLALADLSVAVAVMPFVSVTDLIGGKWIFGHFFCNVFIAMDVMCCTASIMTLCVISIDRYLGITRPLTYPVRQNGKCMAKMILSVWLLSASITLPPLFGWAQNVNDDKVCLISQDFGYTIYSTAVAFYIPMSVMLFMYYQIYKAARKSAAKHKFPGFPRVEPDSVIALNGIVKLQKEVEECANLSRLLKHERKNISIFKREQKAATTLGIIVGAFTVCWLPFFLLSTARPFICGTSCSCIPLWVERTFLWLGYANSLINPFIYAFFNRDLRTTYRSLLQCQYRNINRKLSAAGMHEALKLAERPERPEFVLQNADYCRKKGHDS

Adrenergic alpha1D = molecular target: T3, Adrenergic alpha1D (Homo sapiens, UniProt P25100); experiment: PDSP binding screen; conditions: for inhibition at 10 µM: read-out: Ki (nM) or % inhibition at 10 µM: alpha1D
T3 sequence (P25100 1-572): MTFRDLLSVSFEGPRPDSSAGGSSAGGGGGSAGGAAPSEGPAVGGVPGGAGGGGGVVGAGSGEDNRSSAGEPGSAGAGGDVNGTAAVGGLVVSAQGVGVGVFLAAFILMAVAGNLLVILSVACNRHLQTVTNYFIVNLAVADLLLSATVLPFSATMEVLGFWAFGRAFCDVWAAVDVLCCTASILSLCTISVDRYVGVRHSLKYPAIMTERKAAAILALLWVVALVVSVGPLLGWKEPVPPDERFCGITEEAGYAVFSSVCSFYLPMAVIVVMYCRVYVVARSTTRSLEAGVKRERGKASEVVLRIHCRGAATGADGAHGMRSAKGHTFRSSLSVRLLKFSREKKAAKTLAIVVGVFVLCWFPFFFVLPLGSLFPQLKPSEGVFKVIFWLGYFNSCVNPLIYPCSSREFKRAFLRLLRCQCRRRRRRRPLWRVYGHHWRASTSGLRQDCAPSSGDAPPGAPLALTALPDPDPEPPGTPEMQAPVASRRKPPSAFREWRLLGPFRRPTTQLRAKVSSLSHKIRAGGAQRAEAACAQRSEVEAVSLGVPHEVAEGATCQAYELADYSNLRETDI

Dopamine D4 = molecular target: T4, Dopamine D4 (Homo sapiens, UniProt P21917); experiment: PDSP binding screen
T4 sequence (P21917 1-419): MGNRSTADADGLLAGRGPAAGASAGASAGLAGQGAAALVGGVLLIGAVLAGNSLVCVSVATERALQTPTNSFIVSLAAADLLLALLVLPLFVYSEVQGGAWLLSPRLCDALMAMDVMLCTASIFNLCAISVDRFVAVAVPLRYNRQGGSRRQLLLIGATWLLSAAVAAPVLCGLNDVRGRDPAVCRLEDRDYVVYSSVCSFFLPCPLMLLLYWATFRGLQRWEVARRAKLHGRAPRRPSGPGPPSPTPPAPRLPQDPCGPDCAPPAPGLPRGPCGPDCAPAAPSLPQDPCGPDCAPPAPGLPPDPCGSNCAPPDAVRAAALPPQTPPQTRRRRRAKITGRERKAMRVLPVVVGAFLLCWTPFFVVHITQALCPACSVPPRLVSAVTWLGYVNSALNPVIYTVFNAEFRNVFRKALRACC

Serotonin 5-HT2B = Serotonin 5-HT2B (Homo sapiens, UniProt P41595); experiment: PDSP binding screen
Chain of Serotonin 5-HT2B (P41595 whole entry): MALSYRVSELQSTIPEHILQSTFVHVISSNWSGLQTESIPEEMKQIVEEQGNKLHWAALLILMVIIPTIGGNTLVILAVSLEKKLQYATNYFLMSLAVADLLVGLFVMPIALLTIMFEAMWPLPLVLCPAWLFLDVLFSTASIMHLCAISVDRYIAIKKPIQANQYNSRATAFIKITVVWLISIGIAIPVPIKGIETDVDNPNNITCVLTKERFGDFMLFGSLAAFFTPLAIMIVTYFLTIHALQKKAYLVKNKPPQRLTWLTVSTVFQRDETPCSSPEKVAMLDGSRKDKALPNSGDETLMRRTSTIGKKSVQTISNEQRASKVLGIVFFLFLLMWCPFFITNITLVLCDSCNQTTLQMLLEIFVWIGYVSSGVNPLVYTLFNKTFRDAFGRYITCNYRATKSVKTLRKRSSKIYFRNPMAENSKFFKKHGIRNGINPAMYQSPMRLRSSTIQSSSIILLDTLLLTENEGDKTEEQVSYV

[1] = [125I]IABN, read-out: Ki ± SEM (nM) D3

SMILES | Ki (human D3 receptors; [1]) | D2/D3 (human D3 receptors) | Ki (Serotonin 5-HT6) | Ki (nM) or % inhibition at 10 µM: GABAA (GABAA) | Ki (Dopamine D3) | Ki (Muscarinic M2) | Ki (Opioid MOR) | Ki (Serotonin 5-HT2C) | Ki (nM) or % inhibition at 10 µM: BZP Rat Brain Site (BZP Rat Brain Site) | inhibition at 10 µM (Serotonin 5-HT7A) | Ki (Adrenergic alpha1D) | Ki (Dopamine D4) | Ki (Serotonin 5-HT2B) | inhibition at 10 µM (Muscarinic M2) | inhibition at 10 µM (Opioid MOR) | inhibition at 10 µM (Adrenergic alpha1D) | Ki (human D3 receptors; Ki ± SEM (nM) D3, [125I]IABN)
CCCN(CCCNC(=O)c1ccc(-c2cccs2)cc1)CCNC(=O)c1cc(Br)cc(OC)c1OC [20a, 5-Bromo-2,3-dimethoxy-N-(2-(propyl(3-(4-(thiophen-2-yl)benzamido)propyl)amino)ethyl)benzamide] | 2.7 ± 0.4 nM | 110 | 258 nM | N/A (N/A; not active means less than 50% inhibition that was obtained in primary binding assay at 10 µM of the compound) | 1.32 nM | 4930 nM | 3020 nM | 2020 nM | N/A (N/A; not active means less than 50% inhibition that was obtained in primary binding assay at 10 µM of the compound) | < 50% | 2420 nM | 938 nM | 170 nM |  |  |  | 
CCN(CCCNC(=O)c1ccsc1)CCNC(=O)c1cc(Br)cc(OC)c1OC [21i, N-(3-((2-(5-Bromo-2,3-dimethoxybenzamido)ethyl)(ethyl)amino)propyl)thiophen-e-3-carboxamide] | 7 ± 0.5 nM | 43.4 | 2160 nM | N/A (N/A; not active means less than 50% inhibition that was obtained in primary binding assay at 10 µM of the compound) | 0.28 nM |  |  | 9730 nM | N/A (N/A; not active means less than 50% inhibition that was obtained in primary binding assay at 10 µM of the compound) | < 50% |  | 514 nM | 269 nM | < 50% | < 50% | < 50% | 
CCN(CCCNC(=O)c1ccc(-c2cccs2)cc1)CCNC(=O)c1cc(Br)cc(OC)c1OC [9a, 5-Bromo-N-(2-(ethyl(3-(4-(thiophen-2-yl)benzamido)propyl)amino)ethyl)-2,3-dimethoxybenzamide] |  | 169 | 287 nM | N/A (N/A; not active means less than 50% inhibition that was obtained in primary binding assay at 10 µM of the compound) | 0.83 nM | 1200 nM | 1560 nM | 577 nM | N/A (N/A; not active means less than 50% inhibition that was obtained in primary binding assay at 10 µM of the compound) | < 50% | 2560 nM | 579 nM | 187 nM |  |  |  | 1 ± 0.01 nM
CCN(CCCNC(=O)c1cc2ccccc2[nH]1)CCNC(=O)c1cc(Br)cc(OC)c1OC [21d, N-(3-((2-(5-Bromo-2,3-dimethoxybenzamido)ethyl)(ethyl)amino)propyl)-1H-indole-2-carboxamide] | 0.8 ± 0.2 nM | 180.5 | 1630 nM | N/A (N/A; not active means less than 50% inhibition that was obtained in primary binding assay at 10 µM of the compound) | 0.25 nM |  | 2410 nM | 2100 nM | N/A (N/A; not active means less than 50% inhibition that was obtained in primary binding assay at 10 µM of the compound) | < 50% | 7310 nM | 239 nM | 181 nM | < 50% |  |  | 
CCN(CCCNC(=O)c1ccc(-c2ccncc2)cc1)CCNC(=O)c1cc(Br)cc(OC)c1OC [21c, 5-Bromo-N-(2-(ethyl(3-(4-(pyridin-4-yl)benzamido)propyl)amino)ethyl)-2,3-dimethoxybenzamide] | 1.1 ± 0.1 nM | 97.3 | 1860 nM | N/A (N/A; not active means less than 50% inhibition that was obtained in primary binding assay at 10 µM of the compound) | 0.36 nM | 1660 nM |  | 1500 nM | N/A (N/A; not active means less than 50% inhibition that was obtained in primary binding assay at 10 µM of the compound) | < 50% |  | 2180 nM | 157 nM |  | < 50% | < 50% | 
CCN(CCCNC(=O)c1cc2ccccc2n1C)CCNC(=O)c1cc(Br)cc(OC)c1OC [21j, N-(3-((2-(5-Bromo-2,3-dimethoxybenzamido)ethyl)(ethyl)amino)propyl)-1-methyl-1H-indole-2-carboxamide] | 3.1 ± 0.5 nM | 61.9 | 1310 nM | N/A (N/A; not active means less than 50% inhibition that was obtained in primary binding assay at 10 µM of the compound) | 0.34 nM | 2970 nM | 2770 nM | 5060 nM | N/A (N/A; not active means less than 50% inhibition that was obtained in primary binding assay at 10 µM of the compound) | < 50% |  | 878 nM | 183 nM |  |  | < 50% | 
